Assay results from patent publication US20040023972A1, “Use of substituted imidazo[1,2-a]-pyridin-, -pyrimidin-and-pyrazin-3-yl-amine derivatives in the preparation of medicaments for inhibiting NOS” (Gruenenthal GmbH, priority 2000, published 2004).

Molecular target: T1, NO synthase (Rattus norvegicus, UniProt P29476)
T1 construct: the supernatant was then removed by decantation and frozen in portions at −80° C; from tissue; host or cells: rat cerebellum, 20,000 g supernatant of homogenate
Assay: HTS-NOS assay (NOS assay): conversion of radioactive arginine, cation-exchanger filter plate
Assay type: biochemical
Details: for inhibition at 10 µM: read-out: HTS-NOS assay: % inhibition (10 μM)
Summary of the method: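 Percent inhibition was derived by comparing remaining radioactive arginine with compound-free controls. Arginine retained on phosphate cation-exchanger filters was counted after citrulline washout, following a 5-60 min room-temperature (25 °C) reaction of labelled arginine, NADPH-containing medium and rat cerebellar homogenate supernatant.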

Row | SMILES | HTS-NOS assay: % inhibition (10 μM) | inhibition at 10 µM
1 | [C-]#[N+]CCCCCCN(C(C)=O)c1c(-c2ccco2)nc2cc(C)cc(C)n12 [Example 159, {6-[acetyl-(2-furan-2-yl-5,7-dimethyl-imidazo[1,2-a]pyridin-3-yl)-amino]-hexyl}-methylidyne-ammonium] | 61% | –
2 | CC(=O)N(c1c(C)cccc1C)c1c(-c2cccc(Cl)c2Cl)nc2cc(C)ccn12 [Example 160, N-[2-(2,3-dichloro-phenyl)-7-methyl-imidazo[1,2-a]pyridin-3-yl]-N-(2,6-dimethyl-phenyl)-acetamide] | – | 55%
3 | CC(=O)N(c1c(-c2sccc2Br)nc2ccccn12)C1CCCCC1 [Example 161, N-[2-(3-bromo-thiophen-2-yl)-imidazo[1,2-a]pyridin-3-yl]-N-cyclohexyl-acetamide] | – | 51%
4 | CC(=O)N(c1c(-c2ccc(C)cc2)nc2cc(C)cc(C)n12)C(C)(C)CC(C)(C)C [Example 162, N-(5,7-dimethyl-2-p-tolyl-imidazo[1,2-a]pyridin-3-yl)-N-(1,1,3,3-tetramethylbutyl)-acetamide] | – | 67%
5 | CC(=O)N(c1c(-c2ccncc2)nc2cc(C)ccn12)C1CCCCC1 [Example 163, N-cyclohexyl-N-(7-methyl-2-pyridin-4-yl-imidazo[1,2-a]pyridin-3-yl)-acetamide] | – | 63%
6 | CC(=O)N(c1c(-c2ccccc2C(F)(F)F)nc2cc(C)ccn12)C1CCCCC1 [Example 164, N-cyclohexyl-N-[7-methyl-2-(2-trifluorO-methyl-phenyl)-imidazo[1,2-a]pyridin-3-yl]-acetamide] | 61% | –
7 | CC(=O)N(c1c(-c2ccco2)nc2c(Br)cc(Br)cn12)C(C)(C)CC(C)(C)C [Example 165, N-(6,8-dibromo-2-furan-2-yl-imidazo[1,2-a]pyridin-3-yl)-N-(1,1,3,3-tetramethylbutyl)-acetamide] | – | 67%
8 | CC(=O)N(c1c(-c2ccncc2)nc2cc(C)ccn12)C(C)(C)CC(C)(C)C [Example 166, N-(7-methyl-2-pyridin-4-yl-imidazo[1,2-a]pyridin-3-yl)-N-(1,1,3,3-tetramethylbutyl)-acetamide] | – | 61%
9 | CC(=O)OCc1ccc(-c2nc3cc(C)ccn3c2N(C(C)=O)C2CCCCC2)o1 [Example 167, acetic acid 5-[3-(acetyl-cyclohexyl-amino)-7-methyl-imidazo[1,2-a]pyridin-2-yl]-furan-2-yl methyl ester] | 68% | –
10 | CC(=O)N(c1c(-c2cccnc2)nc2cc(C)ccn12)C(C)(C)CC(C)(C)C [Example 168, N-(7-methyl-2-pyridin-3-yl-imidazo[1,2-a]pyridin-3-yl)-N-(1,1,3,3-tetramethylbutyl)-acetamide] | – | 56%
11 | CC(=O)N(c1c(C)cccc1C)c1c(-c2cccc(Cl)c2Cl)nc2cc(C)cc(C)n12 [Example 169, N-[2-(2,3-dichloro-phenyl)-5,7-dimethyl-imidazo[1,2-a]pyridin-3-yl]-N-(2,6-dimethyl-phenyl)-acetamide] | – | 57%
12 | CC(=O)N(c1c(-c2ccc(C)o2)nc2cc(C)cc(C)n12)C1CCCCC1 [Example 170, N-cyclohexyl-N-[5,7-dimethyl-2-(5-methyl-furan-2-yl)-imidazo[1,2-a]pyridin-3-yl]-acetamide] | – | 65%
13 | CCCCN(C(C)=O)c1c(-c2cccc(OC)c2OC)nc2cc(C)cc(C)n12 [Example 171, N-butyl-N-[2-(2,3-dimethoxy-phenyl)-5,7-dimethyl-imidazo[1,2-a]pyridin-3-yl]-acetamide] | – | 63%
14 | COc1ccccc1-c1nc2cc(C)cc(C)n2c1N(C(C)=O)C(C)(C)CC(C)(C)C [Example 172, N-[2-(2-methoxy-phenyl)-5,7-dimethyl-imidazo[1,2-a]pyridin-3-yl]-N-(1,1,3,3-tetramethyl-butyl)-acetamide] | – | 62%
15 | CC(=O)N(c1c(-c2ccc([N+](=O)[O-])o2)nc2cc(C)cc(C)n12)C1CCCCC1 [Example 173, N-cyclohexyl-N-[5,7-dimethyl-2-(5-nitro-furan-2-yl)-imidazo[1,2-a]pyridin-3-yl]-acetamide] | – | 67%
16 | COC(=O)CN(C(C)=O)c1c(C)nc2cc(C)ccn12 [Example 174, [acetyl-(2,7-dimethyl-imidazo[1,2-a]pyridin-3-yl)-amino]-acetic acid methyl ester] | – | 68%
17 | CC(=O)N(c1c(C)nc2cc(C)cc(C)n12)C1CCCCC1 [Example 175, N-cyclohexyl-N-(2,5,7-trimethyl-imidazo[1,2-a]pyridin-3-yl)-acetamide] | – | 52%
18 | CC(=O)N(c1c(-c2ccc(C(=O)O)s2)nc2ccccn12)C(C)(C)CC(C)(C)C [Example 176, 5-{3-[acetyl-(1,1,3,3-tetramethyl-butyl)-amino]-imidazo[1,2-a]pyridin-2-yl}-thiophene-2-carboxylic acid] | – | 50%

Row | SMILES | HTS-NOS assay: % inhibition (10 μM) | inhibition at 10 µM
19 | CC(=O)N(c1c(-c2ccc(Cl)cc2Cl)nc2cc(C)cc(C)n12)C(C)(C)CC(C)(C)C [Example 177, N-[2-(2,4-dichloro-phenyl)-5,7-dimethyl-imidazo[1,2-a]pyridin-3-yl]-N-(1,1,3,3-tetramethyl-butyl)-acetamide] | – | 67%
20 | CC(=O)N(c1c(-c2ccc([N+](=O)[O-])o2)nc2cc(C)ccn12)C1CCCCC1 [Example 178, N-cyclohexyl-N-[7-methyl-2-(5-nitro-furan-2-yl)-imidazo[1,2-a]pyridin-3-yl]-acetamide] | – | 64%
21 | CC(=O)N(c1c(C)cccc1C)c1c(C(C)(C)C)nc2cc(C)cc(C)n12 [Example 179, N-(2-tert-butyl-5,7-dimethyl-imidazo[1,2-a]pyridin-3-yl)-N-(2,6-dimethylphenyl)-acetamide] | – | 60%
22 | COc1ccccc1-c1nc2cc(C)cc(C)n2c1N(C(C)=O)c1c(C)cccc1C [Example 180, N-(2,6-dimethyl-phenyl)-N-[2-(2-methoxy-phenyl)-5,7-dimethyl-imidazo[1,2-a]-pyridin-3-yl]-acetamide] | – | 54%
23 | CC(=O)N(c1c(-c2cccc(O)c2)nc2cc(C)cc(C)n12)C(C)(C)CC(C)(C)C [Example 181, N-[2-(3-hydroxy-phenyl)-5,7-dimethyl-imidazo[1,2-a]pyridin-3-yl]-N-(1,1,3,3-tetramethyl-butyl)-acetamide] | – | 60%
24 | CC(=O)N(c1c(C)cccc1C)c1c(-c2ccccc2F)nc2cc(C)cc(C)n12 [Example 182, N-(2,6-dimethyl-phenyl)-N-[2-(2-fluoro-phenyl)-5,7-dimethyl-imidazo[1,2-a]-pyridin-3-yl]-acetamide] | – | 53%
25 | CC(=O)N(c1c(-c2ccc(C(=O)O)s2)nc2cccc(C)n12)C(C)(C)C [Example 183, 5-[3-(acetyl-tert-butyl-amino)-5-methyl-imidazo[1,2-a]pyridin-2-yl]-thiophene-2-carboxylic acid] | – | 50%
26 | COc1ccccc1-c1nc2cc(C)ccn2c1N(C(C)=O)c1c(C)cccc1C [Example 184, N-(2,6-dimethyl-phenyl)-N-[2-(2-methoxy-phenyl)-7-methyl-imidazo[1,2-a]-pyridin-3-yl]-acetamide] | – | 51%
27 | CC(=O)N(c1c(-c2ccc(C)cc2)nc2cc(C)ccn12)C(C)(C)CC(C)(C)C [Example 185, N-(7-methyl-2-p-tolyl-imidazo[1,2-a]pyridin-3-yl)-N-(1,1,3,3-tetramethyl-butyl)-acetamide] | – | 55%
28 | CC(=O)N(c1c(-c2ccc(C(=O)O)o2)nc2cc(C)ccn12)C(C)(C)CC(C)(C)C [Example 186, 5-{3-[acetyl-(1,1,3,3-tetramethyl-butyl)-amino]-7-methyl-imidazo[1,2-a]pyridin-2-yl}-furan-2-carboxylic acid] | – | 65%
29 | CC(=O)N(c1c(-c2cccnc2)nc2cc(C)ccn12)C1CCCCC1 [Example 187, N-cyclohexyl-N-(7-methyl-2-pyridin-3-yl-imidazo[1,2-a]pyridin-3-yl)-acetamide] | – | 67%
30 | CC(=O)N(c1c(-c2ccc(C3OCCO3)o2)nc2cc(C)cc(C)n12)C(C)(C)CC(C)(C)C [Example 188, N-[2-(5-[1,3]dioxolan-2-yl-furan-2-yl)-5,7-dimethyl-imidazo[1,2-a]pyridin-3-yl]-N-(1,1,3,3-tetramethyl-butyl)-acetamide] | – | 50%
31 | CC(=O)N(c1c(C)cccc1C)c1c(-c2cc3ccccc3o2)nc2cc(C)cc(C)n12 [Example 189, N-(2-benzofuran-2-yl-5,7-dimethyl-imidazo[1,2-a]pyridin-3-yl)-N-(2,6-dimethylphenyl)-acetamide] | – | 63%
32 | CC(=O)N(c1c(-c2ccco2)nc2cc(C)ccn12)C(C)(C)C [Example 190, N-tert-butyl-N-(2-furan-2-yl-7-methyl-imidazo[1,2-a]pyridin-3-yl)-acetamide] | – | 69%
33 | CC(=O)N(c1c(-c2ccccn2)nc2cc(C)ccn12)C(C)(C)C [Example 191, N-tert-butyl-N-(7-methyl-2-pyridin-2-yl-imidazo[1,2-a]pyridin-3-yl)-acetamide] | – | 57%
34 | CC(=O)N(c1c(-c2cccnc2)nc2cc(C)cc(C)n12)C1CCCCC1 [Example 192, N-cyclohexyl-N-(5,7-dimethyl-2-pyridin-3-yl-imidazo[1,2-a]pyridin-3-yl)-acetamide] | – | 72%
35 | CC(=O)N(c1c(-c2cccc(Cl)c2Cl)nc2cc(C)cc(C)n12)C(C)(C)CC(C)(C)C [Example 193, N-[2-(2,3-dichloro-phenyl)-5,7-dimethyl-imidazo[1,2-a]pyridin-3-yl]-N-(1,1,3,3-tetramethyl-butyl)-acetamide] | – | 55%
36 | COc1cccc(-c2nc3cc(C)cc(C)n3c2N(C(C)=O)C(C)(C)CC(C)(C)C)c1OC [Example 194, N-[2-(2,3-dimethoxy-phenyl)-5,7-dimethyl-imidazo[1,2-a]pyridin-3-yl]-N-(1,1,3,3-tetramethyl-butyl)-acetamide] | – | 59%
